Assays:
[1] = tested on: murine renal cell carcinoma (RENCA); test: Blood vessel density in primary tumors of murine renal cell carcinoma (RENCA) model; format: in vivo, Balb/c mice; conditions: sacrifice day 21
Description: Murine RENCA cells were originally obtained from a tumor that arose spontaneously in the kidney of BALB/c mice. Histologically, RENCA consists of granular cell type adenocarcinoma, which is pleomorphic with large nuclei. Monolayers of murine RENCA cells were grown in RPMI 1640 with phenol red supplemented with 10% FCS, 2 mM L-glutamine, 100 units penicillin/ml, and 100 μg of streptomycin/ml. RENCA cells were cultured in a humidified atmosphere of 95% air and-5% carbon dioxide at 37° C. Media were routinely changed every 3 days.
For the in vivo administration N-[4-(1-benzoyl-piperidin-4-yl)-butyl]-3-(pyridin-3-yl)-acrylamide was solubilized in a 0.9% saline solution and TNP-470 in a saline solution containing 3% absolute ethanol.
All experiments were carried out using 6-8 weeks old male Balb/c mice (approximate weight, 20 g). Mice are maintained in separated conventional housing at constant temperature and humidity […]
All animals were sacrificed on day 21 after tumor implantation and the tumor tissue of all animals was surgically removed and quickly frozen in liquid nitrogen. […] For the visualization of the blood vessels, immunohistochemical staining for CD 31 (PECAM-1 and MEC 13.3; PharMingen, San Diego, Calif.) was performed, and vessels were counted microscopically using a defined magnification.

[2] = Maximum tolerated dose (MTD); set-up: species or system Balb/c mice; conditions: Balb/c, mouse, in vivo
Description: N-[4-(1-benzoyl-piperidin-4-yl)-butyl]-3-(pyridin-3-yl)-acrylamide was given to the animals p.o. twice a day on days 10, 11, 12, 13, 14, and 15 after tumor implantation. The doses were 3, 5, 6, or 10 mg/kg per each administration. TNP-470 was injected into the animals s.c. on days 2, 4, 6, 8, 10, 12, 14, 16, 18 and 20 after tumor implantation at the maximum tolerated dose, 30 mg/kg. Control animals received the vehicle (0.9% saline solution) p.o. twice a day on days 10, 11, 12, 13, 14, and 15 after tumor implantation. At least seven animals per test group were used.
TNP-470 was administered at the MTD (maximum tolerated dose), 30 mg/kg, and over a longer time range than BPPA which was given below the MTD (approximately 12 mg/kg).

[3] = tested on: VEGF production in HepG2 cells; test: VEGF production in HepG2 cells (ELISA of culture supernatant); format: cell-based, human
Description: Trypsin/EDTA: 0.05% (w/v) trypsin (Difco, Detroit, USA)+0.016% (w/v) EDTA (Sigma, Deisenhofen, Germany). N-[4-(1-benzoyl-piperidin-4-yl)-butyl]-3-(pyridin-3-yl)-acrylamide (in the following also referred to as BPPA) was synthesized as described in the literature, by the department of chemistry at Klinge Pharma GmbH, Munich, Germany.
Stock solutions of test compound: a 10 mM solution was prepared in dimethyl sulfoxide (DMSO) and stored at −18° C.; further dilution steps were done in ethanol.
The human-derived tumor cell lines HepG2 (liver carcinoma) was obtained from the American Type Culture Collection (ATCC), Rockville, Md., USA.
Richter's Improved Minimal Essential Medium, Zinc Option (IMEM-ZO), was purchased from Gibco BRL, Life Technologies (Eggenstein, Germany). The standard medium MEM and the human serum albumin were purchased from Sigma (Deisenhofen, Germany). The medium powder was dissolved in deionized water, the pH titrated to 7.2 with HCl/NaOH and sterilized by filtration. The medium was supplemented with 10% fetal calf serum (FCS), PAN Systems GmbH, Aidenbach, Germany.
Monolayer cells were detached from 75 cm^2 flasks by removing the growth medium and adding 3 ml trypsin/EDTA solution to each flask. After about 5-10 minutes incubation at 37° C., when the cells were detached from the surface of the dishes, trypsinization was stopped by adding 3 ml Richter's IMEM-ZO medium containing 10% FCS. The cells were suspended by repeated pipetting. For predilution, an aliquot of 20 μl was added to 10 ml Casyton isotonic solution (No. 043-90037P, Scharfe System, Reutlingen, Germany) using a Sysmex Auto Dilutor Type AD-260 (Toa, Medical Electronics Co. Ltd., Kobe, Japan). The cell number was determined by electronic cell volume measurements by counting with a CASY 1 Cell Counter & Analyzer System, Model TTC (Schärfe System, Reutlingen, Germany) equipped with a 60 μm capillary. Following dilution in growth medium (IMEM-ZO), the cells were finally seeded at a density of 25,000 cells per 1000 μl in 24-well culture dishes (Greiner, Frickenhausen, Germany) for the VEGF assay and incubated at 37° C. in a humidified atmosphere of 5% CO2 in air.
After six days of incubation, when the cells were nearly confluent, the medium was removed and cultures were replenished with 1 ml fresh serum free MEM medium containing 0.1% human serum albumin plus the test substance or the solvent ethanol as control. The cells were then incubated at 37° C. in a humidified atmosphere of 5% CO2 in air. On the next day the medium was removed again and the cultures were incubated with further 0.5 ml serum free MEM containing 0.1% human serum albumin plus the test substance or the solvent ethanol as control. After 48 and 72 hours the medium was collected, centrifuged at 1000 rpm for 5 minutes to remove cell debris. Supernatants were stored at −20° C. until quantification of the VEGF concentration. Furthermore the protein content of the remaining cell layer in each well was determined as reference parameter.
VEGF determination was measured in the supernatants of the cell cultures using a commercially available ELISA kit (R&D, Systems, Wiesbaden/Germany). The method for the determination was performed as described in the test kit brochure.
The results are summarized in the following Table 1, where the VEGF concentration in the supernatant after 48 h and 72 h of incubation was determined. […]

SMILES | vessel density in the RENCA tumor, effectiveness compared to BPPA ([1]; 30 mg/kg (MTD) s.c. on days 2, 4, 6, 8, 10, 12, 14, 16, 18 and 20 after tumor implantation) | MTD ([2]; sc) [mg/kg] | VEGF concentration in the supernatant ([3]; 2 nM compound in medium, 48 hours incubation) [pg/200 μl] | VEGF concentration in the supernatant ([3]; 2 nM compound in medium, 72 hours incubation) [pg/200 μl] | VEGF concentration in the supernatant ([3]; 20 nM compound in medium, 48 hours incubation) [pg/200 μl] | VEGF concentration in the supernatant ([3]; 20 nM compound in medium, 72 hours incubation) [pg/200 μl] | inhibition of the production of VEGF ([3]; after 48 hours of incubation, FIG. 1) | vessel density in the RENCA tumor ([1]; 3, 5, 6 and 10 mg/kg p.o. twice a day on days 10-15 after tumor implantation, CD 31 staining) | MTD ([2]; po) [mg/kg]
CO[C@@H]1[C@H](OC(=O)NC(=O)CCl)CC[C@]2(CO2)[C@H]1[C@@]1(C)O[C@@H]1CC=C(C)C [TNP-470, reference compound] | not as effective as BPPA | 30 | – | – | – | – | – | – | –
O=C(C=Cc1cccnc1)NCCCCC1CCN(C(=O)c2ccccc2)CC1 [BPPA, N-[4-(1-benzoyl-piperidin-4-yl)-butyl]-3-(pyridin-3-yl)-acrylamide] | – | – | 208.30 | 0.00 | 0.00 | 0.00 | inhibited the production of VEGF in HepG2 cells very effectively | significantly reduced the vessel density | ~12

— patent US20060052419A1, “Use of pyridly amides as inhibitors of angiogenesis” (priority 2002, published 2006)
